Key:
[1] = tested on: splenic hematopoietic progenitors (Lineage-Sca-1+CD117+); test: Isolated splenic hematopoietic progenitors exposed to dhS1P, multicolor flow cytometry; assay type: cell-based, athymic nude mice; settings: 5 μM, 24-hour culture
Experimental: (§1) (A) Splenic IMCs (Gr-1+CD11b+, also defined as MDSCs: myeloid-derived suppressor cells) were isolated from MDA-MB-231 tumor-bearing athymic nude mice and exposed to BSA, S1P (5 μM), or dhS1P (5 μM). Following 24-hour culture incubation, cells were labeled with specific antibodies and analyzed by multicolor flow cytometry (red: IMCs; blue: possible B-cells). (B) Splenic IMCs were isolated from MDA-MB-231 tumor-bearing athymic nude mice and cultured (5×10^4 cells/mL) in GEMM-supportive semi-solid media with BSA, S1P (5 μM), or dhS1P (5 μM). GEMM colonies (multipotent myeloid progenitor cells) were visualized and counted after 3 weeks of culture. ANOVA, *p<0.01 compared to no treatment or BSA-treatment, ***p<0.001 compared to S1P-treatment, n≧3. (C) Splenic hematopoietic progenitors (Lineage-Sca-1+CD117+) were isolated from MDA-MB-231 tumor-bearing athymic nude mice and exposed to BSA, S1P (5 μM), or dhS1P (5 μM). Following 24-hour culture incubation, cells were labeled with specific antibodies and analyzed by multicolor flow cytometry.
Splenocytes were harvested from tumor-bearing mice by mechanical disruption in red blood cell lysis buffer. Splenocytes were washed, and resuspended in PBS with Mouse BD Fc Block (1 μg per 1×10^6 splenocytes), and incubated for 15 minutes at 4° C. For IMC isolation, antibodies targeting Gr-1 (FITC) and CD11b (PE-Cy7) were added. […]

[2] = tested on: Gr-1+CD11b+ MDSC-like cells from MaFIA mice; test: Lineage tracing: MDSC-like cells from tumor-bearing MaFIA mice exposed to dhS1P, flow cytometry; assay type: cell-based, MaFIA mice (C57BL/6J background); design: dose or concentration left out as unconfirmed
Source text: Gr-1+CD1 b+MDSC-like cells were isolated by high-speed cell sorting (85-95% purity) from the splenocytes of tumor-bearing MaFIA (Macrophage Fas-Induced Apoptosis) mice. These mice are on the C57BL/6J background and contain a transgene expressing both an inducible apoptosis feature as well as EGFP (enhanced green fluorescent protein). This transgene is expressed from the Csfr1 promoter (CD115), which restricts expression of the transgene to the myeloid lineage. Isolated MDSC-like cells were exposed to dhS1P ([…]) for 24 hours, and flow cytometry was performed to confirm both the disappearance of MDSC-like cells (Gr-1+CD11b+), and the appearance of a lymphocyte population (CD19+CD45R B220+). Lineage tracing using the EGFP feature of the transgene verified that dhS1P-induced lymphocytes (blue population) are EGFP negative and therefore not of myeloid-origin. This is in direct contrast with the EGFP positive MDSC-like cells (red population).

[3] = tested on: splenic IMCs (Gr-1+CD11b+, MDSCs) from MDA-MB-231 tumor-bearing athymic nude mice; test: Isolated IMCs/MDSCs exposed in culture to dhS1P or S1P, multicolor flow cytometry; assay type: cell-based; settings: 5 μM, 24-hour culture
Experimental: as §1
The effect of dhS1P was further investigated at the level of MDSC-like cells, which were reduced as a function of treatment. The effects of dhS1P were directly compared with those of S1P as to delineate a difference in their physiological roles. Tumor-expanded IMCs/MDSCs were isolated and exposed in culture to either dhS1P or S1P. […]

[4] = tested on: isolated IMCs (GEMM colonies, multipotent myeloid progenitor cells); test: CFU-GEMM colony forming assay of isolated IMCs; assay type: cell-based, athymic nude mice; settings: 5 μM, GEMM-supportive semi-solid media, 3 weeks of culture
Experimental: as §1, with “cytometry. […]” for “cytometry.”
Isolated IMCs from the spleens of tumor-bearing athymic nude mice were cultured (5×10^4 cells/mL) in GEMM-supportive complete (mouse) methylcellulose media (R&D Systems, Minneapolis, Minn.), according to the manufacturer's instructions, with BSA, S1P (5 μM), or dhS1P (5 μM). GEMM colonies were visualized and counted after 3 weeks of culture.

Question: What does the source list for `CCCCCCCCCCCCCCC[C@@H](O)[C@@H](N)COP(=O)(O)O` [dhS1P, dihydrosphingosine-1-phosphate]?
Answer: CD19+CD45R B220+ cellular population from isolated hematopoietic progenitors [1]: mediated the expansion; Lymphocyte population (CD19+CD45R B220+) [2]: appearance; MDSC-like cells (Gr-1+CD11b+) [2]: disappearance; Population of cells displaying CD19 and CD45R B220 in isolated IMC culture [3]: promoted the expansion; Cells bearing the surface characteristics of IMCs/MDSCs (Gr-1+CD11b+) ([3]; normal culture conditions): completely ablated; CFU-GEMM colony formation [4]: completely abrogated

Source: patent US20160206633A1, “dhS1P AND USE OF SAME AS AN ANTICANCER THERAPEUTIC AND IMMUNOMODULATOR” (Penn State Research Foundation, Inc., priority 2013, published 2016)
